Key:
[1] = target: PA-IIL binding to human epithelial cells (Pseudomonas aeruginosa, UniProt Q9HYN5); assay: Inhibition of PA-IIL lectin binding to human buccal epithelial cells (flow cytometry); assay type: cell-based; details: FIG. 9A-9F, biotinylated PA-IIL, fluorescein-labeled streptavidin, FACS
Protocol: FIG. 9A-9F illustrates the inhibition of PA-IIL binding to human epithelial cells. Human buccal epithelial cells are incubated with biotinylated PA-IIL lectin followed by detection of bound lectin with fluorescein-labeled streptavidin. Fluorescently labeled cells are quantified by fluorescent-activated cell sorting (FIG. 9B).
Obtain sample of buccal cells by scraping inside of cheek and collecting in 2 mis PBS. Spin cells at 400 g for 7 minutes to generate cell pellet. Discard supernatant. Resuspend in cold TBS-Ca (50 mM TrisHCl, 150 mM NaCl, 2 mM CaCl2 pH 7.4) to cell concentration of 10^6 cells/ml. Aliquot 0.1 ml to each tube. Add biotinylated PA-I or PA-II to tubes (5μ/well of 1.0 mg/ml lectin). Add inhibitors to tubes (5 μl at desired concentration). Incubate on ice for 30 minutes. Wash cells once by adding 400 μl of cold TBS-Ca to each tube and spinning at 400 g for 7 minutes. Discard supernatant. Resuspend cells in 100 μl of cold TBS-Ca. Add streptavidin-FITC (2 μl/tube of 1 mg/ml, KPL Labs, Gaithersburg, Md.). Incubate 30 minutes on ice. Wash cells once by adding 400 μl of cold TBS-Ca to each tube and spinning at 400 g for 7 minutes. Discard supernatant. Resuspend cells in 500 μl of cold TBS-Ca. Analyze in flow cytometer.

PA-IL lectin = target: T1, PA-IL lectin (Pseudomonas aeruginosa, UniProt Q05097); assay: Assay for PA-IL antagonist activity (plate-coated PA-IL, α-galactose-PAA-biotin/streptavidin-HRP competition); assay type: binding; details: for inhibition of PA-IL lectin: FIG. 5
T1 construct: purchased Sigma-Aldrich, St. Louis, Mo
Protocol: (§1) Wells of a microtiter plate (plate 1) are coated with PA-IL (Sigma-Aldrich, St. Louis, Mo.) by incubation for 2 hrs at 37° C. The wells are then blocked for 2 hrs by the addition of 1% bovine serum albumin (BSA) diluted in TBS-Ca (50 mM TrisHCl, 150 mM NaCl, 2 mM CaCl2 pH 7.4) mixed 1:1 v/v with Stabilcoat (Surmodics, Eden Prairie, Minn.). In a second low-binding round-bottom microtiter plate (plate 2), test antagonists are serial diluted in 1% BSA in TBS-Ca/Stabilcoat (60 μl/well). Preformed conjugates of α-galactose-PAA-biotin (GlycoTech Corp, Gaithersburg, Md.) mixed with streptavidin-HRP (KPL Labs, Gaithersburg, Md.) are added to each well of plate 2 (60 μl/well of 2 μg/ml). Plate 1 is then washed with TBS-Ca and 100 μl/well are transferred from plate 2 to plate 1. After incubation at room temperature for 2 hrs, plate 1 is washed and 100 μl of TMB reagent (KPL Labs, Gaithersburg, Md.) is added to each well. After incubation for 5 minutes at room temperature, the reaction is stopped by adding 100 μl/well of 1M H3PO4 and the absorbance of light at 450 nm is determined by a microtiter plate reader.

PA-IIL lectin = target: T2, PA-IIL lectin (Pseudomonas aeruginosa, UniProt Q9HYN5); assay: Assay for PA-IIL antagonist activity (plate-coated PA-IIL, fucose-PAA-biotin/streptavidin-HRP competition); assay type: binding; details: for inhibition of the PA-IIL lectin: FIG. 6
T2 construct: Dr. Wimmerova, Masaryk University, Brno, Czech Republic
Protocol: as §1, with “PA-IIL (Dr. Wimmerova, Masaryk University, Brno, Czech Republic)” for “PA-IL (Sigma-Aldrich, St. Louis, Mo.)”, “Preformed conjugates of α-galactose-PAA-biotin (GlycoTech Corp, Gaithersburg, Md.) mixed with streptavidin-HRP (KPL Labs, Gaithersburg, Md.) are added to each well of plate 2 (60 μl/well of 2 μg/ml).” left out

T1 sequence (Q05097 whole entry): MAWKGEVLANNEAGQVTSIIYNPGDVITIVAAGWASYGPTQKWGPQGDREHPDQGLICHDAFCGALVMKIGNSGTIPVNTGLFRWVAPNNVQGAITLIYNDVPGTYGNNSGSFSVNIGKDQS
T2 sequence (Q9HYN5 entry or part of it): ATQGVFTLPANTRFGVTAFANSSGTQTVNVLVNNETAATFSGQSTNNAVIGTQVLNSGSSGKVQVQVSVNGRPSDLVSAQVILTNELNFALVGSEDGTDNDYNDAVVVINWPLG
PA-IIL binding to human epithelial cells, sequence (Q9HYN5 entry or part of it): as above

Structure (SMILES) | inhibition of PA-IIL binding to human epithelial cells [1] | inhibition of PA-IL lectin (PA-IL lectin; qualitative) | inhibition of PA-IL relative to galactose (from IC50 determination) (PA-IL lectin; FIG. 7, times better than galactose) [times] | inhibition of the PA-IIL lectin (PA-IIL lectin; qualitative) | inhibition of PA-IIL relative to fucose (from IC50 determination) (PA-IIL lectin; FIG. 8, times better than fucose) [times] | inhibition of PA-IL in IC50 determination (PA-IL lectin; FIG. 7, qualitative) | inhibition of PA-IIL in IC50 determination (PA-IIL lectin; FIG. 8, qualitative)
CC1OC(OC2C(CO)OCCC2OC2OC(CO)C(O)C(OC3OC(CO)C(O)C(O)C3O)C2O)C(O)C(O)C1O (stereo not drawn) [Glycomimetic 1] | inhibits binding | inhibited | 4 to 5 | inhibited | 4 to 5 | – | –
OC[C@H]1O[C@H](OCC2O[C@@H](O)[C@H](O)[C@@H](O)[C@@H]2O)[C@H](O)[C@@H](O)[C@H]1O (stereo partly drawn) [Melibiose, Melibiose (Galα1-6Gal)] | – | inhibited | – | – | – | – | –
C[C@H](O)[C@@H](O)[C@@H](O)[C@H](O)C=O [fucose] | – | not | – | – | – | inactive | –
O=C[C@H](O)[C@@H](O)[C@@H](O)[C@H](O)CO [galactose] | no effect | inhibited | – | not | – | – | inactive
